Read-outs that look alike come from different tables or passages of the source.
Columns and labels:
EGFR = EGFR (Homo sapiens, UniProt P00533); assay: ADP-Glo kinase assay, EGFR; assay type: biochemical; parameters: purchased BPS Bioscience (assay run externally by the vendor)
aurora A kinase (AURKA) = target: T1, aurora A kinase (AURKA) (Homo sapiens, UniProt O14965); assay: ADP-Glo kinase assay, Aurora A; assay type: biochemical
T1 construct: purchased BPS Bioscience (assay run externally by the vendor)
T1 sequence (O14965 1-403): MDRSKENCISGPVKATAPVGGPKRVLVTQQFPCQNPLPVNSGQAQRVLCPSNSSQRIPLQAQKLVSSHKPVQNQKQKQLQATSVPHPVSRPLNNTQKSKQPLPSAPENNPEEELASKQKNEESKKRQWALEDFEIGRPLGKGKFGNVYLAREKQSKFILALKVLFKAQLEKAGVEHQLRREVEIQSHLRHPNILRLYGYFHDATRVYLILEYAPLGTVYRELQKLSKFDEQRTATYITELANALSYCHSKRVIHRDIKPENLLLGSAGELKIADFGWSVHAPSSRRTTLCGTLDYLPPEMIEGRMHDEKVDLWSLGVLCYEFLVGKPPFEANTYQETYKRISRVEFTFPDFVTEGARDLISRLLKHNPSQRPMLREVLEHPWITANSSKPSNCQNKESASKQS

Sequence of EGFR (P00533 25-1210): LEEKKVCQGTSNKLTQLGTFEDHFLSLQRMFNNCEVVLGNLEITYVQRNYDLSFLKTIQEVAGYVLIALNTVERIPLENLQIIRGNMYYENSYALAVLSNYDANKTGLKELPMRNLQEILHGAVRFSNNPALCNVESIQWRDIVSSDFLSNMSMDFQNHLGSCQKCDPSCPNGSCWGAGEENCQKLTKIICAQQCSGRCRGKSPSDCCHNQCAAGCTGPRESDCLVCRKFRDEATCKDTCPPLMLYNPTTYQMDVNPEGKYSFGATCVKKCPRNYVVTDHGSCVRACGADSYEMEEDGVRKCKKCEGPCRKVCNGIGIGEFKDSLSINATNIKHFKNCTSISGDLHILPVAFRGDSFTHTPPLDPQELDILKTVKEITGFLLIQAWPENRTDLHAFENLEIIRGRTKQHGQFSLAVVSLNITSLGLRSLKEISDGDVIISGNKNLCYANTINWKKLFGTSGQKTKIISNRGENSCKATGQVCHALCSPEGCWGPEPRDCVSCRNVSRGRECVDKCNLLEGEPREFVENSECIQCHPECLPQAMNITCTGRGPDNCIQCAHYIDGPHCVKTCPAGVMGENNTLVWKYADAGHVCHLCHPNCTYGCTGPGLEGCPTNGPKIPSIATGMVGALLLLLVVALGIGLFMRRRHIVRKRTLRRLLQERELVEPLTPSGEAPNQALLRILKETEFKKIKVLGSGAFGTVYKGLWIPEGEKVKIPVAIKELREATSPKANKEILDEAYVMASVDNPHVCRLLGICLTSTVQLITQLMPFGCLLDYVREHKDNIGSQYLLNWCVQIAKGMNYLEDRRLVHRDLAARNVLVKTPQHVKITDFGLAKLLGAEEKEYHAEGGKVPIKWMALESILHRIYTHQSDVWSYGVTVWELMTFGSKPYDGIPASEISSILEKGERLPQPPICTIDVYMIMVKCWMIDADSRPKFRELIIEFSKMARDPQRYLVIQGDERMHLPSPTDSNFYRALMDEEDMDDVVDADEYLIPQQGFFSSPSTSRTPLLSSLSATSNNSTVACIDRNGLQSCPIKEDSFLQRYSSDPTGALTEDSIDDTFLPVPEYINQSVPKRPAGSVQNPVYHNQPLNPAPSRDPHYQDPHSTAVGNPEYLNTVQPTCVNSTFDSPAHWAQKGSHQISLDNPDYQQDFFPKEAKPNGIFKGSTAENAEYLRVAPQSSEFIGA

EGFR inhibition (in words) (EGFR): single-digit nanomolar EGFR inhibition
IC50 (EGFR; 10 µM ATP, triplicate, read-out: EGFR IC50 ± SD): 0.00663 ± 0.00098 µM
IC50 (EGFR; 10 µM ATP/0.2 mg/ml Poly-Glu-Tyr, read-out: EGFR IC50 (dose-response curve, supplement)): 0.0065 µM
EGFR % Activity Set1 (EGFR; Log[nM] 0): 66%
EGFR % Activity Set2 (EGFR; Log[nM] 0): 62%
EGFR % Activity Set3 (EGFR; Log[nM] 0): 63%
EGFR % Activity Set1 (EGFR; Log[nM] 1.0): 36%
EGFR % Activity Set2 (EGFR; Log[nM] 1.0): 34%
EGFR % Activity Set3 (EGFR; Log[nM] 1.0): 39%
EGFR % Activity Set1 (EGFR; Log[nM] 1.5): 17%
EGFR % Activity Set2 (EGFR; Log[nM] 1.5): 16%
EGFR % Activity Set3 (EGFR; Log[nM] 1.5): 20%
EGFR % Activity Set1 (EGFR; Log[nM] 2.0): 8%
EGFR % Activity Set2 (EGFR; Log[nM] 2.0): 7%
EGFR % Activity Set3 (EGFR; Log[nM] 2.0): 11%
EGFR % Activity Set1 (EGFR; Log[nM] 2.5): 6%
EGFR % Activity Set2 (EGFR; Log[nM] 2.5): 4%
EGFR % Activity Set3 (EGFR; Log[nM] 2.5): 6%
EGFR % Activity Set1 (EGFR; Log[nM] 3.0): 3%
EGFR % Activity Set2 (EGFR; Log[nM] 3.0): 1%
EGFR % Activity Set3 (EGFR; Log[nM] 3.0): 2%
EGFR % Activity Set1 (EGFR; Log[nM] 3.5): 2%
EGFR % Activity Set2 (EGFR; Log[nM] 3.5): 0%
EGFR % Activity Set3 (EGFR; Log[nM] 3.5): 0%
EGFR % Activity Set1 (EGFR; Log[nM] 4.0): 1%
EGFR % Activity Set2 (EGFR; Log[nM] 4.0): 0%
EGFR % Activity Set3 (EGFR; Log[nM] 4.0): 0%
EGFR % Activity Set1 (EGFR; Log[nM] 4.5): 0%
EGFR % Activity Set2 (EGFR; Log[nM] 4.5): 0%
EGFR % Activity Set3 (EGFR; Log[nM] 4.5): 0%
EGFR % Activity Set1 (EGFR; Log[nM] 5.0): 0%
EGFR % Activity Set2 (EGFR; Log[nM] 5.0): 0%
EGFR % Activity Set3 (EGFR; Log[nM] 5.0): 0%
IC50 (aurora A kinase (AURKA); 10 µM ATP, triplicate, read-out: AURKA IC50 ± SD): 3.13 ± 0.75 µM
IC50 (aurora A kinase (AURKA); 10 µM ATP/0.2 mg/ml Kemptide, read-out: Aurora A IC50 (dose-response curve, supplement)): 3.1 µM
Aurora A % Activity Set1 (aurora A kinase (AURKA); Log[nM] 0): 99%
Aurora A % Activity Set2 (aurora A kinase (AURKA); Log[nM] 0): 100%
Aurora A % Activity Set3 (aurora A kinase (AURKA); Log[nM] 0): 90%
Aurora A % Activity Set1 (aurora A kinase (AURKA); Log[nM] 1.0): 109%
Aurora A % Activity Set2 (aurora A kinase (AURKA); Log[nM] 1.0): 95%
Aurora A % Activity Set3 (aurora A kinase (AURKA); Log[nM] 1.0): 101%
Aurora A % Activity Set1 (aurora A kinase (AURKA); Log[nM] 1.5): 102%
Aurora A % Activity Set2 (aurora A kinase (AURKA); Log[nM] 1.5): 108%
Aurora A % Activity Set3 (aurora A kinase (AURKA); Log[nM] 1.5): 96%
Aurora A % Activity Set1 (aurora A kinase (AURKA); Log[nM] 2.0): 94%
Aurora A % Activity Set2 (aurora A kinase (AURKA); Log[nM] 2.0): 104%
Aurora A % Activity Set3 (aurora A kinase (AURKA); Log[nM] 2.0): 107%
Aurora A % Activity Set1 (aurora A kinase (AURKA); Log[nM] 2.5): 95%
Aurora A % Activity Set2 (aurora A kinase (AURKA); Log[nM] 2.5): 98%
Aurora A % Activity Set3 (aurora A kinase (AURKA); Log[nM] 2.5): 99%
Aurora A % Activity Set1 (aurora A kinase (AURKA); Log[nM] 3.0): 80%
Aurora A % Activity Set2 (aurora A kinase (AURKA); Log[nM] 3.0): 85%
Aurora A % Activity Set3 (aurora A kinase (AURKA); Log[nM] 3.0): 84%
Aurora A % Activity Set1 (aurora A kinase (AURKA); Log[nM] 3.5): 42%
Aurora A % Activity Set2 (aurora A kinase (AURKA); Log[nM] 3.5): 48%
Aurora A % Activity Set3 (aurora A kinase (AURKA); Log[nM] 3.5): 49%
Aurora A % Activity Set1 (aurora A kinase (AURKA); Log[nM] 4.0): 19%
Aurora A % Activity Set2 (aurora A kinase (AURKA); Log[nM] 4.0): 22%
Aurora A % Activity Set3 (aurora A kinase (AURKA); Log[nM] 4.0): 19%
Aurora A % Activity Set1 (aurora A kinase (AURKA); Log[nM] 4.5): 8%
Aurora A % Activity Set2 (aurora A kinase (AURKA); Log[nM] 4.5): 9%
Aurora A % Activity Set3 (aurora A kinase (AURKA); Log[nM] 4.5): 8%
Aurora A % Activity Set1 (aurora A kinase (AURKA); Log[nM] 5.0): 5%
Aurora A % Activity Set2 (aurora A kinase (AURKA); Log[nM] 5.0): 4%
Aurora A % Activity Set3 (aurora A kinase (AURKA); Log[nM] 5.0): 3%
SMILES: Clc1cccc(Nc2ncnc3[nH]ccc23)c1 [Compound 11, N^4-(3-chlorophenyl)-7H-pyrrolo[2,3-d]pyrimidin-4-amine]

— paper PMC6009956, “Design, synthesis and biological activity of N^4-phenylsubstituted-7H-pyrrolo[2,3-d]pyrimidin-4-amines as dual inhibitors of aurora kinase A and epidermal growth factor receptor kinase” (Journal of Enzyme Inhibition and Medicinal Chemistry, 2017)
